Measured values taken from patent US20180072997A1, “INHIBITORS OF HUMAN IMMUNODEFICIENCY VIRUS REPLICATION” (ViiV HEATHCARE UK (NO.5) LIMITED, priority 2015, published 2018).
pEC50: −log10 of the molar value.

Assays:
[1] = test system: recombinant NL4-3 virus (Renilla luciferase in nef) in MT-2 cells; assay: whole plant or invertebrate; type: cell-based, HIV; details: Renilla, NL43, MT-2 cells infected for 4-5 days with recombinant NL4-3 Renilla luciferase virus; luciferase activity
Method: HIV cell culture assay—MT-2 cells, 293T cells and the proviral DNA clone of NL4-3 virus were obtained from the NIH AIDS Research and Reference Reagent Program. MT-2 cells were propagated in RPMI 1640 media supplemented with 10% heat inactivated fetal bovine serum (FBS), 100 μg/ml penicillin G and up to 100 units/mL streptomycin. The 293T cells were propagated in DMEM media supplemented with 10% heat inactivated FBS, 100 μg/mL penicillin G and 100 μg/mL streptomycin. A recombinant NL4-3 proviral clone, in which a section of the nef gene was replaced with the Renilla luciferase gene, was used to make the reference virus used in these studies. The recombinant virus was prepared through transfection of the recombinant NL4-3 proviral clone into 293T cells using Transit-293 Transfection Reagent from Mirus Bio LLC (Madison, Wis.). Supernatent was harvested after 2-3 days and the amount of virus present was titered in MT-2 cells using luciferase enzyme activity as a marker by measuring luciferase enzyme activity. Luciferase was quantitated using the EnduRen Live Cell Substrate from Promega (Madison, Wis.). Antiviral activities of compounds toward the recombinant virus were quantified by measuring luciferase activity in MT-2 cells infected for 4-5 days with the recombinant virus in the presence of serial dilutions of the compound.
(Johnson V A, Byington R T. Infectivity Assay. In Techniques in HIV Research. ed. Aldovini A, Walker BD. 71-76. New York: Stockton Press.1990).

[2] = Compound cytotoxicity, XTT-based colorimetric assay; type: cell-based; details: human, uninfected MT2 cells, day 4, XTT
Method: Compound cytotoxicity and the corresponding CC50 values were determined using the same protocol as described in the antiviral assay except that uninfected cells were used. Cytotoxicity was assessed on day 4 in uninfected MT2 cells by using a XTT (2,3-bis[2-Methoxy-4-nitro-5-sulfophenyl]-2H-tetrazolium-5-carboxyanilide inner salt)-based colorimetric assay (Sigma-Aldrich, St Louis, Mo.).

Row | Structure (SMILES) | pEC50 [1] | CC50 at 4 days [2] [µM]
1 | COc1ccc(N(C)C(=O)[C@H](Cc2ccccc2)NC(=O)c2cncc(C(=O)N[C@@H](Cc3ccccc3)C(=O)N(C)c3ccc(OC)cc3)n2)cc1 [Example 111] | 6.02 | ≥ 100
2 | COc1ccc(N(C)C(=O)[C@H](Cc2cc(F)cc(F)c2)NC(=O)Cn2c(=O)n(CC(=O)N[C@@H](Cc3cc(F)cc(F)c3)C(=O)N(C)c3ccc(OC)cc3)c3ccccc32)cc1 [Example 69] | 7.70 | 11.8
3 | COc1ccc(N(C)C(=O)[C@H](Cc2cc(F)cc(F)c2)Nc2ncc(-c3cnc(N[C@@H](Cc4cc(F)cc(F)c4)C(=O)N(C)c4ccc(OC)cc4)nc3)cn2)cc1 [Example 88] | 4.86 | 20.8
4 | CN(C(=O)[C@H](Cc1cc(F)cc(F)c1)NC(=O)NS(=O)(=O)N[C@@H](Cc1cc(F)cc(F)c1)C(=O)N(C)c1ccc(C2CC2)nc1)c1ccc(C2CC2)nc1 [Example 181] | 7.70 | 85.8
5 | C=CCN(C(=O)[C@H](Cc1cc(F)cc(F)c1)NS(=O)(=O)c1cccc(S(=O)(=O)N[C@@H](Cc2cc(F)cc(F)c2)C(=O)N(CC=C)c2ccc(OC)cc2)c1)c1ccc(OC)cc1 [Example 187] | 5.42 | ≥ 100
6 | COc1ccc(N(C)C(=O)[C@H](Cc2ccccc2)NC(=O)c2cncc(C(=O)N[C@@H](Cc3ccccc3)C(=O)N(C)c3ccc(OC)cc3)c2)cc1 [Example 99] | 7.70 | 1.8
7 | COc1ccc(N(C)C(=O)[C@H](Cc2ccccc2)NC(=O)c2ccc(F)c(C(=O)N[C@@H](Cc3ccccc3)C(=O)N(C)c3ccc(OC)cc3)c2)cc1 [Example 106] | 7.30 | 6.3
8 | CCN(C(=O)[C@H](Cc1cc(F)cc(F)c1)NC(=O)NS(=O)(=O)N[C@@H](Cc1cc(F)cc(F)c1)C(=O)N(CC)c1ccc2scnc2c1)c1ccc2scnc2c1 [Example 152] | 7.22 | 99.3
9 | Cc1cc(F)cc(N(C)C(=O)[C@H](Cc2ccccc2)NC(=O)NS(=O)(=O)N[C@@H](Cc2ccccc2)C(=O)N(C)c2cc(C)cc(F)c2)c1 [Example 224] | 5.41 | 46
10 | CCOc1ccc(N(CC)C(=O)[C@H](Cc2ccccc2)NC(=O)NS(=O)(=O)N[C@@H](Cc2ccccc2)C(=O)N(CC)c2ccc(OCC)cc2)cc1 [Example 5] | 6.82 | ≥ 33.3
11 | CN(C(=O)[C@H](Cc1cc(F)cc(F)c1)NC(=O)NS(=O)(=O)N[C@@H](Cc1cc(F)cc(F)c1)C(=O)N(C)c1ccc2scnc2c1)c1ccc2scnc2c1 [Example 18] | 7.52 | 85.3
12 | Cc1ccc(N(C)C(=O)[C@H](Cc2cc(F)cc(F)c2)NC(=O)CN2c3ccccc3N(CC(=O)N[C@@H](Cc3cc(F)cc(F)c3)C(=O)N(C)c3ccc(C)nc3)S2(=O)=O)cn1 [Example 195] | 7.70 | 54
13 | COc1ccc(N(C)C(=O)[C@H](Cc2ccccc2)NC(=O)c2nc[nH]c2C(=O)N[C@@H](Cc2ccccc2)C(=O)N(C)c2ccc(OC)cc2)cc1 [Example 59] | 5.48 | 11
14 | C=CCN(C(=O)[C@H](Cc1cc(F)cc(F)c1)NC(=O)CCC(=O)N[C@@H](Cc1cc(F)cc(F)c1)C(=O)N(CC=C)c1ccc(OC)cc1)c1ccc(OC)cc1 [Example 170] | 5.12 | 28.4
15 | COc1ccc(N(C)C(=O)[C@H](Cc2ccccc2)NC(=O)NS(=O)(=O)N[C@@H](Cc2ccccc2)C(=O)N(C)c2cc(OC)c(OC)c(OC)c2)cc1 [Example 17] | 4.91 | 15.9
16 | COc1ccc(N(C)C(=O)[C@H](Cc2ccccc2)NC(=O)COc2nc3ccccc3n(CC(=O)N[C@@H](Cc3ccccc3)C(=O)N(C)c3ccc(OC)cc3)c2=O)cc1 [Example 95] | 6.68 | ≥ 50
17 | COc1ccc(N(C)C(=O)[C@H](Cc2ccccc2)NC(=O)c2cc(C(=O)N[C@@H](Cc3ccccc3)C(=O)N(C)c3ccc(OC)cc3)[nH]n2)cc1 [Example 57] | 5.80 | 3.5
18 | Cc1ccc(N(C)C(=O)[C@H](Cc2cc(F)cc(F)c2)NC(=O)NS(=O)(=O)N[C@@H](Cc2cc(F)cc(F)c2)C(=O)N(C)c2ccc(C)nc2)cn1 [Example 172] | 6.24 | ≥ 100
19 | C=CCN(C(=O)[C@H](Cc1cc(F)cc(F)c1)NC(=O)NS(=O)(=O)N[C@@H](Cc1cc(F)cc(F)c1)C(=O)N(CC=C)c1ccc2nccnc2c1)c1ccc2nccnc2c1 [Example 213] | 5.09 | ≥ 100

Row | Structure (SMILES) | pEC50 [1] | CC50 at 4 days [2] [µM]
20 | CCc1ncc(N(C)C(=O)[C@H](Cc2cc(F)cc(F)c2)NC(=O)NS(=O)(=O)N[C@@H](Cc2cc(F)cc(F)c2)C(=O)N(C)c2cnc(CC)nc2)cn1 [Example 208] | 4.80 | 37.7
21 | CN(C(=O)[C@H](Cc1cc(F)cc(F)c1)NC(=O)NS(=O)(=O)N[C@@H](Cc1cc(F)cc(F)c1)C(=O)N(C)c1ccc(C(F)(F)F)nc1)c1ccc(C(F)(F)F)nc1 [Example 199] | 6.33 | 46.7
22 | CN(C(=O)[C@H](Cc1cc(F)cc(F)c1)NC(=O)NS(=O)(=O)N[C@@H](Cc1cc(F)cc(F)c1)C(=O)N(C)c1ccc(C2CC2)cc1)c1ccc(C2CC2)cc1 [Example 198] | 8.00 | 12.5
23 | COc1ccc(N(C)C(=O)[C@H](Cc2ccccc2)NC(=O)C(C)(C)C(=O)N[C@@H](Cc2ccccc2)C(=O)N(C)c2ccc(OC)cc2)cc1 [Example 4] | 5.73 | ≥ 100
24 | C=CCN(C(=O)[C@H](Cc1cc(F)cc(F)c1)NC(=O)c1ccccc1S(=O)(=O)N[C@@H](Cc1cc(F)cc(F)c1)C(=O)N(CC=C)c1ccc(OC)cc1)c1ccc(OC)cc1 [Example 210] | 4.99 | ≥ 100
25 | COc1ccc(N(C)C(=O)[C@H](Cc2ccccc2)NC(=O)CNC(=O)NCC(=O)N[C@@H](Cc2ccccc2)C(=O)N(C)c2ccc(OC)cc2)cc1 [Example 68] | 5.85 | 69.3
26 | CN(C(=O)[C@H](Cc1cc(F)cc(F)c1)NC(=O)NS(=O)(=O)N[C@@H](Cc1cc(F)cc(F)c1)C(=O)N(C)c1ccc2sc(=O)[nH]c2c1)c1ccc2sc(=O)[nH]c2c1 [Example 175] | 6.35 | ≥ 100
27 | CN(C(=O)[C@H](Cc1cc(F)cc(F)c1)Nc1ccnc(N[C@@H](Cc2cc(F)cc(F)c2)C(=O)N(C)c2ccc3scnc3c2)n1)c1ccc2scnc2c1 [Example 146] | 5.54 | 30.6
28 | NC(=O)c1cc(-c2cccnc2[C@H](Cc2cc(F)cc(F)c2)NC(=O)NS(=O)(=O)N[C@@H](Cc2cc(F)cc(F)c2)c2ncccc2-c2ccc(F)c(C(N)=O)c2)ccc1F [Example 70] | 6.82 | ≥ 100
29 | COc1ccc(N(C)C(=O)[C@H](Cc2ccccc2)NC(=O)c2cc(C(=O)N[C@@H](Cc3ccccc3)C(=O)N(C)c3ccc(OC)cc3)n(C)n2)cc1 [Example 115] | 5.67 | ≥ 100
30 | CCN(C(=O)[C@H](Cc1cc(F)cc(F)c1)NC(=O)CN1c2ccccc2N(CC(=O)N[C@@H](Cc2cc(F)cc(F)c2)C(=O)N(CC)c2ccc(NC(=O)OC)cc2)S1(=O)=O)c1ccc(NC(=O)OC)cc1 [Example 148] | 6.14 | ≥ 100
31 | CN(C(=O)[C@H](Cc1ccccc1)NC(=O)CS(=O)(=O)N[C@@H](Cc1ccccc1)C(=O)N(C)c1ccc2scnc2c1)c1ccc2scnc2c1 [Example 65] | 6.49 | 34.6
32 | COc1ccc(N(C)C(=O)[C@H](Cc2ccccc2)NC(=O)N[C@@H](Cc2ccccc2)C(=O)N(C)c2ccc(OC)cc2)cc1 [Example 1] | 5.54 | 23.1
33 | COc1ccc(N(C)C(=O)[C@H](Cc2ccccc2)Nc2nc(N)nc(N[C@@H](Cc3ccccc3)C(=O)N(C)c3ccc(OC)cc3)n2)cc1 [Example 124] | 5.42 | 31
34 | CN(C(=O)[C@H](Cc1ccccc1)NC(=O)NS(=O)(=O)N[C@@H](Cc1ccccc1)C(=O)N(C)c1ccccc1)c1ccccc1 [Example 85] | 6.01 | ≥ 100
35 | COc1ccc(N(C)C(=O)[C@H](Cc2ccccc2)NC(=O)/C=C/CC(=O)N[C@@H](Cc2ccccc2)C(=O)N(C)c2ccc(OC)cc2)cc1 [Example 117] | 6.19 | 30.8
36 | COc1ccc(N(C)C(=O)[C@H](Cc2ccccc2)NC(=O)NS(=O)(=O)N[C@H](Cc2ccccc2)C(=O)N(C)c2ccc(OC)cc2)cc1 [Example 11] | 6.33 | ≥ 33.3
37 | CN(C(=O)[C@H](Cc1cc(F)cc(F)c1)NS(=O)(=O)CS(=O)(=O)N[C@@H](Cc1cc(F)cc(F)c1)C(=O)N(C)c1ccc2scnc2c1)c1ccc2scnc2c1 [Example 202] | 7.10 | ≥ 100
38 | COc1ccc(N(C)C(=O)[C@H](Cc2ccccc2)NS(=O)(=O)CCCS(=O)(=O)N[C@@H](Cc2ccccc2)C(=O)N(C)c2ccc(OC)cc2)cc1 [Example 28] | 5.85 | 30
